Laboratory results as given in patent US20210040116A1, “New Polymorphs of Dolutegravir Sodium” (CIPLA LIMITED, priority 2017, published 2021).

What was measured:
[1] = Bulk density and tapped density (USP <616> method I); assay type: physicochemical
Description: Suitable methods for determining the bulk density and tapped density of the crystalline form 1A of dolutegravir sodium of the present invention and the crystalline form of dolutegravir sodium form disclosed in WO2010068253 will be well known to the skilled chemist. For example, USP <616> method I may be used.

[2] = Comparative intrinsic dissolution; assay type: physicochemical; conditions: 0.01M pH 6.8 phosphate buffer containing 0.25% w/v SDS, 37° C., 50 rpm
Description: The following data illustrates the dissolution of the crystalline form of dolutegravir sodium disclosed in WO2010068253 (i.e. not the hydrate), compared to crystalline Form 1A of the present invention (i.e. crystalline Form 1A of dolutegravir sodium).
Dissolution medium: 0.01M pH 6.8 phosphate buffer containing 0.25% w/v sodium dodecyl sulfate (SDS)
FIG. 5 is a graphical comparison of the intrinsic dissolution of the solid crystalline Form 1A of dolutegravir sodium of the present invention and the crystalline form of dolutegravir sodium disclosed in WO2010068253. The solid line represents the dissolution of solid crystalline Form 1A of dolutegravir sodium of the present invention, with the dotted line representing the dissolution of the crystalline form of dolutegravir sodium disclosed in WO2010068253.

SMILES	tapped density [1] [g/mL]	% Release ([2]; 5 minutes) [%]	% Release ([2]; 15 minutes) [%]	% Release ([2]; 30 minutes) [%]	% Release ([2]; 60 minutes) [%]	% Release ([2]; 120 minutes) [%]	% Release ([2]; 240 minutes) [%]	% Release ([2]; 360 minutes) [%]	% Release ([2]; 480 minutes) [%]	% Release ([2]; 600 minutes) [%]	% Release ([2]; 720 minutes) [%]	bulk density [1] [g/mL]
C[C@@H]1CCO[C@H]2Cn3cc(C(=O)NCc4ccc(F)cc4F)c(=O)c([O-])c3C(=O)N12.[Na+] [Form 1A, sodium (4R,12aS)-9-{[(2,4,-difluorophenyl)methyl]carbamoyl}-4-methyl-6,8-dioxo-3,4,6,8,12,12a-hexahydro-2H-pyrido[1′,2′:4,5]pyrazino[2,1-b][1,3]oxazin-7-olate]	0.7 to 0.8	26	45	73	66	79	82	81	85	86	82	–
C[C@@H]1CCO[C@H]2Cn3cc(C(=O)NCc4ccc(F)cc4F)c(=O)c([O-])c3C(=O)N12.[Na+] [crystalline form of dolutegravir sodium disclosed in WO20100] [sodium (4R,12aS)-9-{[(2,4,-difluorophenyl)methyl]carbamoyl}-4-methyl-6,8-dioxo-3,4,6,8,12,12a-hexahydro-2H-pyrido[1′,2′:4,5]pyrazino[2,1-b][1,3]oxazin-7-olate]	–	5	13	20	56	68	74	72	73	73	74	0.2 to 0.3
